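48-hour exposure; five concentrations; linearly interpolated endpoints. GI50 = concentration required for 50% inhibition of growth.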 Active and inactive are the calls of the source. No stated cut-off is given here; in the data, active = GI50 up to about 1.1 µM and inactive = higher.
Experiments:
Assay in all cases: growth of human tumour cells (NCI), 48 h
786-0 = test system: 786-0
ACHN = test system: ACHN
COLO 205 = test system: COLO 205
EKVX = test system: EKVX
HL-60 = test system: HL-60
K562 = test system: K562
KM12 = test system: KM12
M14 = test system: M14
OVCAR-3 = test system: OVCAR-3
SK-MEL-2 = test system: SK-MEL-2
SK-MEL-5 = test system: SK-MEL-5
SN12C = test system: SN12C
TK-10 = test system: TK-10
UACC-257 = test system: UACC-257
NCI-H226 = test system: NCI-H226
SNB-75 = test system: SNB-75
HT-29 = test system: HT-29

Measured: GI50

NC(=O)C(N)=O
inactive: 786-0 > 100 µM | ACHN > 100 µM | COLO 205 > 100 µM | EKVX > 100 µM | HL-60 > 100 µM | K562 > 100 µM | KM12 > 100 µM | M14 > 100 µM | OVCAR-3 > 100 µM | SK-MEL-2 > 100 µM | SK-MEL-5 > 100 µM | SN12C > 100 µM | TK-10 > 100 µM | UACC-257 > 100 µM

CO/C=C(\Br)c1ccc2c(c1)OCO2
inactive: 786-0 > 100 µM | ACHN > 100 µM | EKVX > 100 µM | HL-60 > 100 µM | K562 > 100 µM | KM12 > 100 µM | M14 > 100 µM | NCI-H226 > 100 µM | OVCAR-3 > 100 µM | SK-MEL-2 > 100 µM | SN12C > 100 µM | SNB-75 > 100 µM | TK-10 > 100 µM | UACC-257 > 100 µM

COC(=O)C1=C(C(=O)OC)C2(C)Nc3ccccc3C2=C(c2ccccc2)C1 (stereo not drawn)
inactive: 786-0 22.5 µM | ACHN 22.1 µM | COLO 205 19.2 µM | EKVX 28.8 µM | HL-60 19.9 µM | HT-29 27.7 µM | K562 16.1 µM | KM12 13.5 µM | M14 17 µM | OVCAR-3 17.9 µM | SK-MEL-2 17.8 µM | SK-MEL-5 15.5 µM | SN12C 23.7 µM | SNB-75 2.13 µM | TK-10 26.6 µM | UACC-257 17.9 µM

CCc1nnc(S)n1/N=C/c1ccc(-c2ccc([N+](=O)[O-])cc2)o1
inactive: 786-0 > 100 µM | ACHN > 100 µM | COLO 205 > 100 µM | HL-60 > 100 µM | HT-29 > 100 µM | K562 > 100 µM | KM12 > 100 µM | M14 > 100 µM | NCI-H226 > 100 µM | OVCAR-3 > 100 µM | SK-MEL-2 > 100 µM | SN12C > 100 µM | SNB-75 > 100 µM | TK-10 > 100 µM | UACC-257 > 100 µM

NNC(=O)CNC(=O)c1ccc(Cl)cc1Cl
inactive: 786-0 39.8 µM | ACHN > 100 µM | COLO 205 > 100 µM | EKVX > 100 µM | HL-60 > 100 µM | HT-29 80.4 µM | K562 > 100 µM | KM12 > 100 µM | M14 > 100 µM | NCI-H226 > 100 µM | OVCAR-3 > 100 µM | SK-MEL-5 > 100 µM | SN12C > 100 µM | SNB-75 > 100 µM | TK-10 > 100 µM | UACC-257 > 100 µM

Cc1c(C(=O)CSc2nc3ccccc3c(=O)n2-c2ccccc2)c(=O)n(-c2ccccc2)n1C
inactive: 786-0 19.9 µM | ACHN 35.2 µM | COLO 205 > 100 µM | HL-60 > 100 µM | HT-29 > 100 µM | KM12 54.7 µM | M14 94.2 µM | NCI-H226 23.3 µM | OVCAR-3 27.6 µM | SK-MEL-2 > 100 µM | SK-MEL-5 31.6 µM | SN12C 97.7 µM | SNB-75 60.8 µM | TK-10 41.9 µM | UACC-257 47.3 µM

COC12CCC(C(C(=O)c3ccccc3)=C1C(=O)c1ccccc1)C(O)C2 (stereo not drawn)
inactive: 786-0 > 100 µM | COLO 205 > 100 µM | EKVX > 100 µM | HL-60 > 100 µM | HT-29 > 100 µM | K562 > 100 µM | KM12 > 100 µM | M14 > 100 µM | NCI-H226 > 100 µM | OVCAR-3 > 100 µM | SK-MEL-2 > 100 µM | SK-MEL-5 > 100 µM | SN12C > 100 µM | SNB-75 > 100 µM | TK-10 > 100 µM | UACC-257 > 100 µM

CC(=O)OC1CC2Oc3ccc(C)cc3C(C)(O2)C1=O (stereo not drawn)
inactive: 786-0 > 100 µM | ACHN > 100 µM | COLO 205 > 100 µM | EKVX > 100 µM | HL-60 > 100 µM | HT-29 > 100 µM | K562 > 100 µM | KM12 > 100 µM | M14 > 100 µM | NCI-H226 > 100 µM | OVCAR-3 > 100 µM | SK-MEL-5 > 100 µM | SN12C > 100 µM | SNB-75 51.1 µM | TK-10 > 100 µM | UACC-257 > 100 µM

CCCCN(CCCC)C(=O)C(=O)CC(=O)c1ccc(Br)cc1
inactive: 786-0 > 100 µM | ACHN > 100 µM | COLO 205 > 100 µM | EKVX > 100 µM | HL-60 > 100 µM | HT-29 > 100 µM | K562 > 100 µM | KM12 > 100 µM | M14 > 100 µM | NCI-H226 > 100 µM | OVCAR-3 > 100 µM | SK-MEL-2 > 100 µM | SK-MEL-5 > 100 µM | SN12C > 100 µM | TK-10 > 100 µM | UACC-257 > 100 µM

Reference: ChEMBL document CHEMBL1201862, “PubChem BioAssay data set” (2004)
